Laboratory results: ChEMBL document CHEMBL2321853, “Novel acylethanolamide derivatives that modulate body weight through enhancement of hypothalamic pro-opiomelanocortin (POMC) and/or decreased neuropeptide Y (NPY)” (J Med Chem, 2013)
Calls of active or inactive are those of the source. The rule behind the calls is not given here.

Tests used:
[1] = molecular target: Transient receptor potential cation channel subfamily V member 1 (Homo sapiens, UniProt Q8NER1); experiment: Agonist activity at TRPV1 receptor (unknown origin)
Transient receptor potential cation channel subfamily V member 1, sequence (Q8NER1 whole entry): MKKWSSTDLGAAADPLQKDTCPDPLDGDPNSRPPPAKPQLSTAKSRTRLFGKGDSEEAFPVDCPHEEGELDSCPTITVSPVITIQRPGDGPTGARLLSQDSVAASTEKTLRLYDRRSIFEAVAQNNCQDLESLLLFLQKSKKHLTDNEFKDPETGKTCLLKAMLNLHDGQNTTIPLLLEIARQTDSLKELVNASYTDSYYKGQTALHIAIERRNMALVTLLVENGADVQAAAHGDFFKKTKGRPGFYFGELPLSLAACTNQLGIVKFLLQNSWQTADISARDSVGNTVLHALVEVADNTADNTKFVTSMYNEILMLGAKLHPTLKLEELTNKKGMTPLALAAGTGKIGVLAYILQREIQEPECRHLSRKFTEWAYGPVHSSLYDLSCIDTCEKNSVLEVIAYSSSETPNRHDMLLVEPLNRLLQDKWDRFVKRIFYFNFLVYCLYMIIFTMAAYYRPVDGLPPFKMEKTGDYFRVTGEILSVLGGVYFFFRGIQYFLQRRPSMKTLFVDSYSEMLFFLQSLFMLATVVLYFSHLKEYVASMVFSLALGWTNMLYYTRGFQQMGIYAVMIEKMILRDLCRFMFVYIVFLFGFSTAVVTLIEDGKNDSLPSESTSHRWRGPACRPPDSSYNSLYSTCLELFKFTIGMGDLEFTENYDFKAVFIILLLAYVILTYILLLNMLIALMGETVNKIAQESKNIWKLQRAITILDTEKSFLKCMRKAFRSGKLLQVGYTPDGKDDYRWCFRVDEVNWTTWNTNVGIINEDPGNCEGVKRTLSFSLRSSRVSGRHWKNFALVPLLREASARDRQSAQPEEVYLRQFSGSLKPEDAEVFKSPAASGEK

[2] = system: Mus musculus; experiment: Antiobesity activity in Sabra mouse assessed as reduction in body weight at 1 mg/kg, ip administered on day 0, 10, 11, 12, 24, 29 measured on day 26 relative to control; type: functional; set-up: scale not given: the % may be the effect or the level left; conditions: route intraperitoneal
[3] = system: Mus musculus; experiment: Antiobesity activity in Sabra mouse assessed as reduction in body weight at 1 mg/kg, ip administered on day 0, 10, 11, 12, 24, 29 measured on day 24 relative to control; type: functional; set-up: scale not given: the % may be the effect or the level left; conditions: route intraperitoneal
[4] = system: Mus musculus; experiment: Antiobesity activity in Sabra mouse assessed as reduction in body weight at 1 mg/kg, ip administered on day 0, 10, 11, 12, 24, 29 measured on day 39 relative to control; type: functional; set-up: scale not given: the % may be the effect or the level left; conditions: route intraperitoneal
[5] = system: Mus musculus; experiment: Antiobesity activity in Sabra mouse assessed as reduction in body weight at 1 mg/kg, ip administered on day 0, 10, 11, 12, 24, 29 measured on day 36 relative to control; type: functional; set-up: scale not given: the % may be the effect or the level left; conditions: route intraperitoneal
[6] = system: Mus musculus; experiment: Antiobesity activity in Sabra mouse assessed as reduction in body weight at 1 mg/kg, ip administered on day 0, 10, 11, 12, 24, 29 measured on day 22 relative to control; type: functional; set-up: scale not given: the % may be the effect or the level left; conditions: route intraperitoneal
[7] = system: Mus musculus; experiment: Antiobesity activity in Sabra mouse assessed as reduction in body weight at 1 mg/kg, ip administered on day 0, 10, 11, 12, 24, 29 measured on day 33 relative to control; type: functional; set-up: scale not given: the % may be the effect or the level left; conditions: route intraperitoneal
[8] = system: Mus musculus; experiment: Antiobesity activity in Sabra mouse assessed as reduction in body weight at 1 mg/kg, ip administered on day 0, 10, 11, 12, 24, 29 measured on day 12 relative to control; type: functional; set-up: scale not given: the % may be the effect or the level left; conditions: route intraperitoneal
[9] = system: Mus musculus; experiment: Antiobesity activity in Sabra mouse assessed as reduction in body weight at 1 mg/kg, ip administered on day 0, 10, 11, 12, 24, 29 measured on day 19 relative to control; type: functional; set-up: scale not given: the % may be the effect or the level left; conditions: route intraperitoneal
[10] = system: Mus musculus; experiment: Antiobesity activity in Sabra mouse assessed as reduction in body weight at 1 mg/kg, ip administered on day 0, 10, 11, 12, 24, 29 measured on day 29 relative to control; type: functional; set-up: scale not given: the % may be the effect or the level left; conditions: route intraperitoneal
[11] = system: Mus musculus; experiment: Antiobesity activity in Sabra mouse assessed as change in body weight at 1 mg/kg, ip administered on day 8, 12 and 43 measured on day 15 relative to control; type: functional; conditions: route intraperitoneal
[12] = system: Mus musculus; experiment: Antiobesity activity in C57BL/6 mouse assessed as weight loss at 5 mg/kg, ip administered on day 1, 4, 5, 7, 17, 15, 19 measured on day 3 relative to control; type: functional; conditions: route intraperitoneal
[13] = system: Mus musculus; experiment: Antiobesity activity in C57BL/6 mouse assessed as weight loss at 5 mg/kg, ip administered on day 1, 4, 5, 7, 17, 15, 19 measured on day 5 relative to control; type: functional; conditions: route intraperitoneal
[14] = system: Mus musculus; experiment: Antiobesity activity in C57BL/6 mouse assessed as weight loss at 5 mg/kg, ip administered on day 1, 4, 5, 7, 17, 15, 19 measured on day 17 relative to control; type: functional; conditions: route intraperitoneal
[15] = system: Mus musculus; experiment: Antiobesity activity in C57BL/6 mouse assessed as weight loss at 5 mg/kg, ip administered on day 1, 4, 5, 7, 17, 15, 19 measured on day 8 relative to control; type: functional; conditions: route intraperitoneal
[16] = system: Mus musculus; experiment: Antiobesity activity in Sabra mouse assessed as change in body weight at 1 mg/kg, ip administered on day 8, 12 and 43 measured on day 33 relative to control; type: functional; conditions: route intraperitoneal
[17] = system: Mus musculus; experiment: Antiobesity activity in C57BL/6 mouse assessed as change in glucose level in blood at 5 mg/kg, ip administered on day 1, 4, 5, 7, 17, 15, 19 measured on day 9 relative to control; type: functional; conditions: route intraperitoneal
[18] = system: Mus musculus; experiment: Antiobesity activity in C57BL/6 mouse assessed as change in glucose level in blood at 5 mg/kg, ip administered on day 1, 4, 5, 7, 17, 15, 19 measured on day 15 relative to control; type: functional; conditions: route intraperitoneal
[19] = system: Mus musculus; experiment: Antiobesity activity in Sabra mouse assessed as change in body weight at 1 mg/kg, ip administered on day 8, 12 and 43 measured on day 29 relative to control; type: functional; conditions: route intraperitoneal
[20] = system: Mus musculus; experiment: Antiobesity activity in Sabra mouse assessed as change in body weight at 1 mg/kg, ip administered on day 8, 12 and 43 measured on day 8 relative to control; type: functional; conditions: route intraperitoneal
[21] = system: Mus musculus; experiment: Antiobesity activity in Sabra mouse assessed as change in body weight at 1 mg/kg, ip administered on day 8, 12 and 43 measured on day 43 relative to control; type: functional; conditions: route intraperitoneal
[22] = system: Mus musculus; experiment: Antiobesity activity in Sabra mouse assessed as change in body weight at 1 mg/kg, ip administered on day 8, 12 and 43 measured on day 54 relative to control; type: functional; conditions: route intraperitoneal
[23] = system: Mus musculus; experiment: Antiobesity activity in C57BL/6 mouse assessed as weight loss at 5 mg/kg, ip administered on day 1, 4, 5, 7, 17, 15, 19 measured on day 12 relative to control; type: functional; conditions: route intraperitoneal
[24] = system: Mus musculus; experiment: Antiobesity activity in C57BL/6 mouse assessed as weight loss at 5 mg/kg, ip administered on day 1, 4, 5, 7, 17, 15, 19 measured on day 9 relative to control; type: functional; conditions: route intraperitoneal
[25] = system: Mus musculus; experiment: Effect on neurological score in Sabra mouse assessed as change in neurological score at 1 mg/kg, ip administered on day 8, 12 and 43 by NSS method; type: functional, organism-based; set-up: dose 1 mg/kg
[26] = system: Mus musculus; experiment: Increase in ALT levels in Sabra mouse at 1 mg/kg, ip administered on day 8, 12 and 43 measured on day 74; type: ADME, organism-based; set-up: dose 1 mg/kg, route intraperitoneal; conditions: in vivo
[27] = system: Mus musculus; experiment: Antiobesity activity in C57BL/6 mouse assessed as weight loss at 5 mg/kg, ip administered on day 1, 4, 5, 7, 17, 15, 19 measured on day 15 relative to control; type: functional; conditions: route intraperitoneal
[28] = system: Mus musculus; experiment: Antiobesity activity in C57BL/6 mouse assessed as change in glucose level in blood at 5 mg/kg, ip administered on day 1, 4, 5, 7, 17, 15, 19 measured on day 5 relative to control; type: functional; conditions: route intraperitoneal
[29] = system: Mus musculus; experiment: Enhancement of cognitive function in Sabra mouse at 1 mg/kg, ip administered on day 8, 12 and 43 by eight-arm maze test; type: functional, organism-based; set-up: dose 1 mg/kg
[30] = system: Mus musculus; experiment: Antiobesity activity in C57BL/6 mouse assessed as change in glucose level in blood at 5 mg/kg, ip administered on day 1, 4, 5, 7, 17, 15, 19 measured on day 19 relative to control; type: functional; conditions: route intraperitoneal
[31] = system: Mus musculus; experiment: Antiobesity activity in Sabra mouse assessed as change in body weight at 1 mg/kg, ip administered on day 8, 12 and 43 measured on day 71 relative to control; type: functional; conditions: route intraperitoneal
[32] = system: Mus musculus; experiment: Antiobesity activity in Sabra mouse assessed as change in body weight at 1 mg/kg, ip administered on day 8, 12 and 43 measured on day 36 relative to control; type: functional; conditions: route intraperitoneal
[33] = system: Mus musculus; experiment: Antiobesity activity in Sabra mouse assessed as change in body weight at 1 mg/kg, ip administered on day 8, 12 and 43 measured on day 5 relative to control; type: functional; conditions: route intraperitoneal
[34] = system: Mus musculus; experiment: Antiobesity activity in C57BL/6 mouse assessed as change in AST level at 5 mg/kg, ip measured on day 36 (reference value: 146.7 IU/L); type: functional; conditions: route intraperitoneal
[35] = system: Mus musculus; experiment: Antiobesity activity in C57BL/6 mouse assessed as change in glucose level in blood at 5 mg/kg, ip administered on day 1, 4, 5, 7, 17, 15, 19 measured on day 11 relative to control; type: functional; conditions: route intraperitoneal
[36] = system: Mus musculus; experiment: Antiobesity activity in C57BL/6 mouse assessed as change in triglyceride level at 5 mg/kg, ip measured on day 36 (reference value: 0.92 mg/dL); type: functional; conditions: route intraperitoneal
[37] = system: Mus musculus; experiment: Antiobesity activity in C57BL/6 mouse assessed as weight loss at 5 mg/kg, ip administered on day 1, 4, 5, 7, 17, 15, 19 measured on day 11 relative to control; type: functional; conditions: route intraperitoneal
[38] = system: Mus musculus; experiment: Antiobesity activity in C57BL/6 mouse assessed as change in cholesterol level at 5 mg/kg, ip measured on day 36 (reference value: 86.58 mg/dL); type: functional; conditions: route intraperitoneal
[39] = system: Mus musculus; experiment: Antiobesity activity in Sabra mouse assessed as change in body weight at 1 mg/kg, ip administered on day 8, 12 and 43 measured on day 50 relative to control; type: functional; conditions: route intraperitoneal
[40] = system: Mus musculus; experiment: Antiobesity activity in C57BL/6 mouse assessed as change in glucose level in blood at 5 mg/kg, ip administered on day 1, 4, 5, 7, 17, 15, 19 measured on day 3 relative to control; type: functional; conditions: route intraperitoneal
[41] = system: Mus musculus; experiment: Antiobesity activity in Sabra mouse assessed as change in body weight at 1 mg/kg, ip administered on day 8, 12 and 43 measured on day 12 relative to control; type: functional; conditions: route intraperitoneal
[42] = system: Mus musculus; experiment: Antiobesity activity in C57BL/6 mouse assessed as weight loss at 5 mg/kg, ip administered on day 1, 4, 5, 7, 17, 15, 19 measured on day 19 relative to control; type: functional; conditions: route intraperitoneal
[43] = molecular target: T1, Glucose-dependent insulinotropic receptor (Homo sapiens, UniProt Q8TDV5); experiment: Agonist activity at recombinant GPR119 receptor (unknown origin)
T1 sequence (Q8TDV5 whole entry): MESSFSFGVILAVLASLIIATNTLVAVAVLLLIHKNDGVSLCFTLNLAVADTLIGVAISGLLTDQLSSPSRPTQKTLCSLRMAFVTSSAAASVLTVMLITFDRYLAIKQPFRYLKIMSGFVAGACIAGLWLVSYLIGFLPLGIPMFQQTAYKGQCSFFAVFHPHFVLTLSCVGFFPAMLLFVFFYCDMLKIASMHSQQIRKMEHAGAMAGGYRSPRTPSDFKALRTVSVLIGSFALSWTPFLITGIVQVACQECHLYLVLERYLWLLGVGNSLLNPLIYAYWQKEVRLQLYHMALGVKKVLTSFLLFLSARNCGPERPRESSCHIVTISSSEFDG

CCCCC/C=C\C/C=C\CCCCCCCC(=O)NCCO [LINOLEOYLETHANOLAMIDE]
EC50 [1]: 630 nM

CCCCCCCC/C=C\CCCCCCCC(=O)N(C)CCO
Activity [2]: -0.5%
Activity [3]: 0.03%
Activity [4]: -3.67%
Activity [5]: -3.28%
Activity [6]: -0.48%
Activity [7]: -0.3%
Activity [8]: -0.61%
Activity [9]: -0.48%
Activity [10]: -1.44%

Cc1c(C(=O)NN2CCCCC2)nn(-c2ccc(Cl)cc2Cl)c1-c1ccc(Cl)cc1 [RIMONABANT]
Activity [11]: 1.6%
Activity [12]: -0.6%
Activity [13]: -3.2%
Activity [14]: -1.9%
Activity [15]: -3.5%
Activity [16]: 0.8%
Activity [17]: -16.2%
Activity [18]: -15.5%
Activity [19]: 1.5%
Activity [20]: 3.2%
Activity [21]: -3.1%
Activity [22]: -3.5%
Activity [23]: -4.5%
Activity [24]: -4.6%
Activity [25]: inactive
Activity [26]: Active
Activity [27]: -4.5%
Activity [28]: -11%
Activity [29]: inactive
Activity [30]: 19.8%
Activity [31]: -0.9%
Activity [32]: -2.2%
Activity [33]: 0.3%
Activity [34]: 125.3 IU/L
Activity [35]: -20.7%
Activity [36]: 1.286 mg/dL
Activity [37]: -3.1%
Activity [38]: 94.16 mg/dL
Activity [39]: -2.4%
Activity [40]: 0.86%
Activity [41]: 0.9%
Activity [42]: -4.5%

CCCCCCCC/C=C\CCCCCCCC(=O)NCCO [OLEOYLETHANOLAMIDE]
EC50 [43]: 3200 nM
Activity [2]: 1.43%
Activity [3]: -0.18%
Activity [4]: -3.42%
Activity [5]: -2.57%
Activity [6]: -1.17%
Activity [7]: -0.15%
EC50 [1]: 40 nM
Activity [8]: -0.23%
Activity [9]: -1.17%
Activity [10]: -0.2%
